Source: US20250215029A1 (Recludix Pharma, Inc., priority 2022, published 2025)

Molecular target: T1, pY641-STAT6 in PBMC (Homo sapiens, UniProt P42226)
T1 construct: Cryopreserved Peripheral Blood Mononuclear Cells (PBMC) are from AllCells; host or cells: cryopreserved PBMC
T1 sequence (P42226 1-847): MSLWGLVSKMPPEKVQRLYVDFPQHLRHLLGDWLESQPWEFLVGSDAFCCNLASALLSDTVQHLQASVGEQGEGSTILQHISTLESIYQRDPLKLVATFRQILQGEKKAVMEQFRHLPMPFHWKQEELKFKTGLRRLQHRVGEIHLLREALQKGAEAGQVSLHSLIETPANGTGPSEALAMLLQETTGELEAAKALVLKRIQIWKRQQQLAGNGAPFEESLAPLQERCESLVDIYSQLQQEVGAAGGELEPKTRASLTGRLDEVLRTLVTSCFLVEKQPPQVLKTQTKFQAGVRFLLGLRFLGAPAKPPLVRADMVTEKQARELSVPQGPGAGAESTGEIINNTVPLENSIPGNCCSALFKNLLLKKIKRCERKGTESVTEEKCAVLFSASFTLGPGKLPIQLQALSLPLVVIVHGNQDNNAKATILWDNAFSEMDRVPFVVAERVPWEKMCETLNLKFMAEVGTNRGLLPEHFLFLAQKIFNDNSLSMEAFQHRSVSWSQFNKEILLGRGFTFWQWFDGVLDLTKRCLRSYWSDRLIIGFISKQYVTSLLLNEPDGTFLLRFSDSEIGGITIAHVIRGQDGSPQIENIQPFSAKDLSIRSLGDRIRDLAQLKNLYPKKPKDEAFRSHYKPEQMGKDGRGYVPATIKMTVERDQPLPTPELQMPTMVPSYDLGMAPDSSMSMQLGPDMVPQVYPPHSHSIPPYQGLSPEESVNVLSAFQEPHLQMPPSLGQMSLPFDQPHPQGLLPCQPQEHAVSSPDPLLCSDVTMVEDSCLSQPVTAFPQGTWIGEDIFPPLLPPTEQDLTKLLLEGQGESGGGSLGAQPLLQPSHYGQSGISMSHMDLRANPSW
Test: MSD-pSTAT-PBMC Assay (pSTAT6, IL-4 stimulated)
Assay type: cell-based
Details: STAT6, PBMC, compound 3 hrs, then 1 ng/mL IL-4 for 10 min; Table 115
How it was run: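 Cells are preincubated with compound for 3 hrs, then stimulated for 10 min, IL-4 at 1 ng/mL driving STAT6 phosphorylation and IL-6 at 10 ng/mL driving STAT3. Phospho-STAT in lysates is quantified by MSD immunoassay, and IC50 is fitted after subtracting unstimulated wells.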

`COCCOC(=O)[C@H](COC)NP(=O)(Oc1ccccc1)[C@@H](F)c1ccc2sc(C(=O)N[C@H]3CCCC[C@H]4CC[C@@H](C(=O)N5C[C@H](c6ccccc6)[C@@H](C#N)C56CC6)N4C3=O)cc2c1` (stereo partly drawn) [Compound 376, 2-methoxyethyl N-(((R)-(2-(((3S,6S,10aS)-3-((6S,7R)-7-cyano-6-phenyl-4-azaspiro[2.4]heptane-4-carbonyl)-5-oxodecahydropyrrolo [1,2-a]azocin-6-yl)carbamoyl)benzo [b]thiophen-5-yl)fluoromethyl) (phenoxy)phosphoryl)-O-methyl-L-serinate] and `CCCOC(=O)[C@H](C)NP(=O)(Oc1ccccc1)[C@H](F)c1ccc2sc(C(=O)N[C@H]3CCC[C@H]4CC[C@@H](C(=O)N5C[C@@H](c6ccccc6)[C@H](C#N)C56CC6)N4C3=O)cc2c1` (stereo partly drawn) [Compound 387, propyl (((S)-(2-(((3S,6S,9aS)-3-((6R,7S)-7-cyano-6-phenyl-4-azaspiro[2.4]heptane-4-carbonyl)-5-oxooctahydro-1H-pyrrolo[1,2-a]azepin-6-yl)carbamoyl)benzo [b]thiophen-5-yl)fluoromethyl) (phenoxy)phosphoryl)-L-alaninate] cannot be ordered by IC50: under 100 nM for the first, under 100 nM for the second.

`COCCOC(=O)[C@H](C)NP(=O)(Oc1ccccc1)[C@@H](F)c1ccc2sc(C(=O)N[C@H]3CCCC[C@H]4CC[C@@H](C(=O)N5C[C@@H](c6cccnc6)CC56CC6)N4C3=O)cc2c1` (stereo partly drawn) [Compound 378, 2-methoxyethyl (((R)-fluoro(2-(((3S,6S,10aS)-5-oxo-3-((R)-6-(pyridin-3-yl)-4-azaspiro[2.4]heptane-4-carbonyl)decahydropyrrolo[1,2-a]azocin-6-yl)carbamoyl)benzo [b]thiophen-5-yl)methyl)(phenoxy)phosphoryl)-L-alaninate] and `CCCOC(=O)[C@H](C)NP(=O)(Oc1ccccc1)[C@@H](F)c1ccc2sc(C(=O)N[C@H]3CCC[C@H]4CC[C@@H](C(=O)N5C[C@@H](c6cccnc6)CC56CC6)N4C3=O)cc2c1` (stereo partly drawn) [Compound 379, propyl (((R)-fluoro(2-(((3S,6S,9aS)-5-oxo-3-((R)-6-(pyridin-3-yl)-4-azaspiro[2.4]heptane-4-carbonyl)octahydro-1H-pyrrolo[1,2-a]azepin-6-yl)carbamoyl)benzo [b]thiophen-5-yl)methyl)(phenoxy)phosphoryl)-L-alaninate] cannot be ordered by IC50: under 100 nM for the first, under 100 nM for the second.

`CCCOC(=O)[C@H](COC)NP(=O)(Oc1ccccc1)[C@@H](F)c1ccc2sc(C(=O)N[C@H]3CCCC[C@H]4CC[C@@H](C(=O)N5C[C@@H](c6cccnc6)CC56CC6)N4C3=O)cc2c1` (stereo partly drawn) [Compound 384, propyl N-(((R)-fluoro(2-(((3S,6S,10aS)-5-oxo-3-((R)-6-(pyridin-3-yl)-4-azaspiro[2.4]heptane-4-carbonyl)decahydropyrrolo[1,2-a]azocin-6-yl)carbamoyl)benzo [b]thiophen-5-yl)methyl)(phenoxy)phosphoryl)-O-methyl-L-serinate] and `CC(C)COC(=O)[C@H](C)NP(=O)(Oc1ccccc1)[C@@H](F)c1ccc2sc(C(=O)N[C@H]3CCCC[C@H]4CC[C@@H](C(=O)N5C[C@@H](c6cccnc6)CC56CC6)N4C3=O)cc2c1` (stereo partly drawn) [Compound 417, isobutyl (((R)-fluoro(2-(((3S,6S,10aS)-5-oxo-3-((R)-6-(pyridin-3-yl)-4-azaspiro[2.4]heptane-4-carbonyl)decahydropyrrolo[1,2-a]azocin-6-yl)carbamoyl)benzo [b]thiophen-5-yl)methyl)(phenoxy)phosphoryl)-L-alaninate] cannot be ordered by IC50: under 100 nM for the first, under 100 nM for the second.

`C[C@H](NP(=O)(Oc1ccccc1)[C@@H](F)c1ccc2sc(C(=O)N[C@H]3CCCC[C@H]4CC[C@@H](C(=O)N5C[C@@H](c6cccnc6)CC56CC6)N4C3=O)cc2c1)C(=O)OCc1ccccn1` (stereo partly drawn) [Compound 385, pyridin-2-ylmethyl (((R)-fluoro(2-(((3S,6S,10aS)-5-oxo-3-((R)-6-(pyridin-3-yl)-4-azaspiro[2.4]heptane-4-carbonyl)decahydropyrrolo[1,2-a]azocin-6-yl)carbamoyl)benzo [b]thiophen-5-yl)methyl)(phenoxy)phosphoryl)-L-alaninate] and `C[C@H](NP(=O)(Oc1ccccc1)[C@@H](F)c1ccc2sc(C(=O)N[C@H]3CCCC[C@H]4CC[C@@H](C(=O)N5C[C@@H](c6cccnc6)CC56CC6)N4C3=O)cc2c1)C(=O)OC1CC1` (stereo partly drawn) [Compound 418, cyclopropyl (((R)-fluoro(2-(((3S,6S,10aS)-5-oxo-3-((R)-6-(pyridin-3-yl)-4-azaspiro[2.4]heptane-4-carbonyl)decahydropyrrolo[1,2-a]azocin-6-yl)carbamoyl)benzo [b]thiophen-5-yl)methyl)(phenoxy)phosphoryl)-L-alaninate] cannot be ordered by IC50: under 100 nM for the first, under 100 nM for the second.

`C[C@H](NP(=O)(Oc1ccccc1)[C@@H](F)c1ccc2sc(C(=O)N[C@H]3CCCC[C@H]4CC[C@@H](C(=O)N5C[C@@H](c6cccnc6)CC56CC6)N4C3=O)cc2c1)C(=O)OCC1(C)COC1` (stereo partly drawn) [Compound 386, (3-methyloxetan-3-yl)methyl (((R)-fluoro(2-(((3S,6S,10aS)-5-oxo-3-((R)-6-(pyridin-3-yl)-4-azaspiro[2.4]heptane-4-carbonyl)decahydropyrrolo[1,2-a]azocin-6-yl)carbamoyl)benzo [b]thiophen-5-yl)methyl)(phenoxy)phosphoryl)-L-alaninate] and `CCCOC(=O)[C@H](C)NP(=O)(Oc1ccccc1)C(F)c1ccc2ccc(C(=O)N[C@H]3CCCC[C@H]4CC[C@@H](C(=O)N5CC(c6ccccc6)CC56CC6)N4C3=O)cc2c1` (stereo partly drawn) [Compound 411, propyl ((fluoro(7-(((3S,6S,10aS)-5-oxo-3-(6-phenyl-4-azaspiro[2.4]heptane-4-carbonyl)decahydropyrrolo[1,2-a]azocin-6-yl)carbamoyl)naphthalen-2-yl)methyl)(phenoxy)phosphoryl)-L-alaninate] cannot be ordered by IC50: under 100 nM for the first, under 100 nM for the second.

`CCCOC(=O)[C@H](C)NP(=O)(Oc1ccccc1)C(F)(F)c1ccc2ccc(C(=O)N[C@H]3CCCC[C@H]4CC[C@@H](C(=O)N5C[C@@H](c6cc[nH]c(=O)c6)CC56CC6)N4C3=O)cc2c1` (stereo partly drawn) [Compound 414, propyl ((difluoro(7-(((3S,6S,10aS)-5-oxo-3-((R)-6-(2-oxo-1,2-dihydropyridin-4-yl)-4-azaspiro[2.4]heptane-4-carbonyl)decahydropyrrolo[1,2-a]azocin-6-yl)carbamoyl)naphthalen-2-yl)methyl)(phenoxy)phosphoryl)-L-alaninate] and `CC(C)OC(=O)[C@H](C)NP(=O)(Cc1ccc2ccc(C(=O)N[C@H]3CCCC[C@H]4CC[C@@H](C(=O)N5C[C@H](c6cc[nH]c(=O)c6)CC56CC6)N4C3=O)cc2c1)Oc1ccccc1` (stereo partly drawn) [Compound 423, isopropyl (((7-(((3S,6S,10aS)-5-oxo-3-((S)-6-(2-oxo-1,2-dihydropyridin-4-yl)-4-azaspiro[2.4]heptane-4-carbonyl)decahydropyrrolo[1,2-a]azocin-6-yl)carbamoyl)naphthalen-2-yl)methyl)(phenoxy)phosphoryl)-L-alaninate] fall in the same range of IC50: 100 to 1000 nM for the first, 100 to 1000 nM for the second.

First: CCCCOC(=O)[C@H](C)NP(=O)(Cc1ccc2ccc(C(=O)N[C@H]3CCCC[C@H]4CC[C@@H](C(=O)N5CC(c6ccccc6)CC56CC6)N4C3=O)cc2c1)Oc1cccc2ccccc12 (stereo partly drawn) [Compound 416, butyl ((naphthalen-1-yloxy)((7-(((3S,6S,10aS)-5-oxo-3-(6-phenyl-4-azaspiro[2.4]heptane-4-carbonyl)decahydropyrrolo[1,2-a]azocin-6-yl)carbamoyl)naphthalen-2-yl)methyl)phosphoryl)-L-alaninate]
Second: CC(C)OC(=O)[C@H](C)NP(=O)(Cc1ccc2ccc(C(=O)N[C@H]3CCCC[C@H]4CC[C@@H](C(=O)N5C[C@@H](c6cc[nH]c(=O)c6)CC56CC6)N4C3=O)cc2c1)Oc1ccccc1 (stereo partly drawn) [Compound 424, isopropyl (((7-(((3S,6S,10aS)-5-oxo-3-((R)-6-(2-oxo-1,2-dihydropyridin-4-yl)-4-azaspiro[2.4]heptane-4-carbonyl)decahydropyrrolo[1,2-a]azocin-6-yl)carbamoyl)naphthalen-2-yl)methyl)(phenoxy)phosphoryl)-L-alaninate]
The IC50 of the first is higher: over 3000 nM for the first, 100 to 1000 nM for the second. The second is the more potent here.

Work on `CCCOC(=O)[C@H](C)NP(=O)(Oc1ccccc1)C(F)c1ccc2ccc(C(=O)N[C@H]3CCCC[C@H]4CC[C@@H](C(=O)N5CCC(c6cccnc6)C5)N4C3=O)cc2c1` (stereo partly drawn) [Compound 427, propyl ((fluoro(7-(((3S,6S,10aS)-5-oxo-3-(3-(pyridin-3-yl)pyrrolidine-1-carbonyl)decahydropyrrolo[1,2-a]azocin-6-yl)carbamoyl)naphthalen-2-yl)methyl)(phenoxy)phosphoryl)-L-alaninate] yielded an IC50 of under 100 nM.
